Reference: patent US20130178479A1, “PHARMACEUTICAL COMBINATIONS” (NOVARTIS AG, priority 2010, published 2013)
Read-outs that look alike come from different tables or passages of the source. Each block holds one compound with its values, some of them ahead of it.

Legend:
[1] = tested on: pS6 S240/244 in NCI-H23 cells; experiment: High content pS6 S240/244 assay in NCI-H23 cells; type: cell-based; conditions: Homo sapiens, single agent, NCI-H23, 18 hrs; for IC50: read-out: IC50, inhibition of pS6 signal; for IC90: read-out: IC90, inhibition of pS6 signal
Method: (§1) Automated imaging assay (or High-Content assay) for pS6 S240/244 and p4EBP1 T37/46: 2-4×10^3 cells were seeded in clear-bottom 384-well black plates (Greiner #781091) in 30 μl per well growth media 24 hours prior to treatment Compounds were added to the cell in 10 μl growth media and incubated overnight; the cells were then fixed by addition of 10 μl per well Mirsky's fixative (National Diagnostics #HS-102) for 1 hour, washed seven times with 30 μl/well TBS buffer using a BioTek plate washer, and blocked with 100 μl/well blocking buffer (TBS with 0.1% BSA and 0.1% Triton X-100). The anti-Ser 240/244 -RPS6 antibody (CST #4838, 1:150 dilution) or anti-Thr 37/46-p4EBP1 antibody (CST #2855, 1:150 dilution) were then incubated overnight at 4° C. After seven times wash with TBS, the cells were stained with Cy5-conjugated goat-anti-rabbit IgG 2nd antibody (Millipore #AP187S, 1:150 dilution) and DNA staining dye Neediest 33342 for 1.5 hours. The phospho-S6 and phospho-4EBP1 signals were-imaged using InCell 1000 Analyzer (BN_staining—10×protocol) at 10× magnification, 3 fields per well after seven times wash with TBS. For Hoechst 33342 signal; the excitation and emission wave lengths are 360 nm (D360—40× filter) and […] (HQ460—40M filter), respectively, and for Cy5, 620 nm (HQ620—60× filter) for both the excitation and emission wave lengths. Analysis of the images was done using the InCell Investigator software.
(§2) Method for calculating the effect of the Combination: To evaluate the everolimus and Compound A combination effect in a non-bias way and to identify synergistic effect at all possible concentrations, the combination studies were conducted with a “dose matrix”, where a combination is tested in all possible permutations of serially-diluted everolimus and Compound A single agent doses, in all combination assays, compounds were applied simultaneously. Single agent dose responding curves, IC50, IC90, and the Synergy are all analyzed using Chalice software (CombinatoRx, Cambridge, Mass.). Synergy was calculated by comparing a combination's response to those of its single agents, against the drug-with-itself dose-additive reference model. Deviations from dose additivity can be assessed visually on an Isobologram or numerically With a Combination Index. Excess inhibition compare to additivity can also be plotted as a full dose-matrix chart to capture where the synergies occur. To quantify the overall strength of combination effects, a volume score VHSA=ΣXYInfXInfY(Idata−IHSA) is also calculated between the data and the highest-single-agent surface, normalized for single agent dilution factors fX,fY[ref].
The experiment setup is identical to the p4EBP1 assay used for the NCI-H23 cell model (FIGS. 3-4). […]

[2] = tested on: p4EBP1 T37/46 in MFE296 cells; experiment: High content p4EBP1 T37/46 assay in MFE296 cells; type: cell-based, human; conditions: for IC50 / IC90: Homo sapiens, MFE-296
Method: as §1, §2
p4EBP1 signal. […] The cells were plated at 4000 cells/well in 384 well plates in duplicates, and treated with compound for 18 hrs before the measurement (FIG. 7).

[3] = tested on: AN3 CA human endometrial cancer cells; experiment: Cell proliferation assay (CellTiter-Glo) in AN3 CA; type: cell-based
Method: (§3) Celt Proliferation Assay: Cell viability was determined by measuring cellular ATP content using the CellTiter-Glo® Luminescent Cell Viability Assay (Promega #G7573) according to manufacturer's protocol. Briefly, 1500-50000 cells were plated on either 384 or 96 well plates in 30 μl (384 well) or 100 μl (96 well) growth media, cells were: allowed to attach overnight and followed by 72 hrs of incubation with various concentration of drugs or drug combinations (10 μl per well in 384 well plates), at the end of the drug treatment, 30 μl of the CellTiter-Glo regent were added to each well (384 well plates) to lyse the cell, and luminescence signals were recorded on a Envision plate reader.
as §2
The cells were plated at 1500 cells/well in 384 well plates in quadruplicates, and treated with compound for 72 hrs before the measurement (FIG. 9). The following “dose matrix”, everolimus: 11 dose, 4×, 500 nM to 0.5 pM, Compound A: 9 dose, 4×, 1 μM to […], was applied.

[4] = tested on: GA-10 human Non-Hodgkin's Lymphoma cancer cells; experiment: Cell proliferation assay (CellTiter-Glo) in GA-10; type: cell-based
Method: as §3, §2
The cells were plated at 50000 cells/well in 96 well plates in triplicate, and treated with compound for 72 hrs prior to the measurement (FIG. 10). The following “dose matrix”, everolimus: 8 dose, 3×, 500 nM to 0.23 nM, Compound A: 8 dose, 2×, 1 μM to 8 nM, was applied.

[5] = tested on: SK-BR3 Human Breast Cancer cells; experiment: Cell proliferation assay (CellTiter-Glo) in SK-BR3; type: cell-based; conditions: for IC50: Homo sapiens, SK-BR-3
Method: as §3
The cells were plated at 2000 cells/well in 96 well plates in triplicates, and treated with compound for 72 hrs prior to the measurement. The following dose matrix, everolimus: 8 dose, 2×, […] to 15 nM, Compound A: 8 dose, 2×, 2 μM to 15 nM, was applied.

[6] = tested on: MDA-MB-361 Human Breast Cancer cells; experiment: Cell proliferation assay (CellTiter-Glo) in MDA-MB-361; type: cell-based; conditions: for IC50: Homo sapiens
Method: as §3
The cells were plated at 2000 cells/well in […] in triplicates, and treated with compound for 72 hrs prior to the measurement. The following “dose matrix”, everolimus: 8 dose, 2×, 2000 nM to 15 nM, Compound A: 8 dose, 2×, 2 μM to 15 nM, was applied.

[7] = single agent, SK-BR3, 72 hrs, read-out: IC50, inhibition of cell growth
[8] = single agent, MDA-MB-361, 72 hrs

IC50 [1]: 5 nM | IC90 [1]: ~20 nM | IC50 ([2]; in presence of trace amount of everolimus, MFE296, read-out: IC50 for Compound A, p4EBP1 signal): 0.24 nM | IC90 ([2]; in presence of trace amount of everolimus, MFE296, read-out: IC90 for Compound A, p4EBP1 signal): 4 nM | IC50 ([2]; single agent, MFE296, 18 hrs, read-out: IC50, reduction of p4EBP1 signal): 16 nM | IC90 ([2]; single agent, MFE296, 18 hrs, read-out: IC90, reduction of p4EBP1 signal): ~100 nM | IC50 ([3]; Homo sapiens, single agent, 72 hrs, read-out: IC50, inhibition of cell growth): 5 nM | IC90 ([4]; Homo sapiens, GA-10, 72 h, single agent, GA-10, 72 hrs, read-out: IC90, inhibition of cell growth): 250 nM | IC90 ([4]; Homo sapiens, GA-10, concomitant everolimus, GA-10, read-out: IC90 for Compound A, cell growth): 16 nM | IC50 ([4]; Homo sapiens, single agent, GA-10, 72 hrs, read-out: IC50, inhibition of cell growth): ~25 nM | IC90 ([4]; single agent, GA-10, 72 hrs, read-out: IC90, inhibition of cell growth): ~300 nM | IC50 ([5]; concomitant everolimus, SK-BR3, read-out: IC50 for Compound A, cell growth): < 15 nM | IC50 [5, 7]: ~31 nM | IC50 ([6]; concomitant everolimus, MDA-MB-361, read-out: IC50 for Compound A, cell growth): < 15 nM | IC50 ([6]; single agent, MDA-MB-361, 72 hrs, read-out: IC50, inhibition of cell growth): ~60 nM
Structure (SMILES): Cn1c(=O)n(-c2ccc(C(C)(C)C#N)cc2)c2c3cc(-c4cnc5ccccc5c4)ccc3ncc21 [Compound A, 2-methyl-2-[4-(3-methyl-2-oxo-8-quinolin-3-yl-2,3-dihydro-imidazo[4,5-c]quinolin-1-yl)-phenyl]-propionitrile]
full effective dose amount of Compound A ([3]; Compound A alone): > 64 nM | Amax ([3]; single agent, 72 hrs): 0.69 | full effective dose amount of Compound A ([3]; with trace amount (picomolar) of everolimus): close to nanomolar or sub-nanomolar range | full effective dose amount of Compound A ([4]; Compound A alone, GA-10): > 250 nM | Amax ([4]; single agent, GA-10, 72 hrs): 1 | full effective dose amount of Compound A ([4]; with trace amount (sub-nanomolar) of everolimus, GA-10): 16 to 62 nM | full effective dose range of Compound A ([5]; Compound A alone, SK-BR3): 120 nM | Amax ([5]; single agent, SK-BR3, 72 hrs): 0.67 | full effective dose range of Compound A ([5]; with low dose everolimus, SK-BR3): < 15 nM | full effective dose range of Compound A ([6]; Compound A alone, MDA-MB-361): 120 nM | Amax [6, 8]: 0.81 | full effective dose range of Compound A ([6]; with low dose everolimus, MDA-MB-361): < 15 nM

IC50 [1]: < 5 nM | IC90 [1]: ~10 nM | IC50 [5, 7]: < 15 nM
Structure (SMILES): CO[C@H]1C[C@@H]2CC[C@@H](C)[C@@](O)(O2)C(=O)C(=O)N2CCCC[C@H]2C(=O)O[C@H]([C@H](C)C[C@@H]2CC[C@@H](OCCO)[C@H](OC)C2)CC(=O)[C@H](C)/C=C(\C)[C@@H](O)[C@@H](OC)C(=O)[C@H](C)C[C@H](C)/C=C/C=C/C=C/1C [everolimus, 40-O-(2-hydroxyethyl)-rapamycin, reference compound]
p4EBP1 signal reduction ([2]; single agent, all concentrations tested 0.5 pM-500 nM, MFE296): approximately 20% | Amax ([3]; single agent, 72 hrs): 0.3 | Amax ([4]; single agent, GA-10, 72 hrs): 0.3 | Amax ([5]; single agent, SK-BR3, 72 hrs): 0.50 | Amax [6, 8]: < 0.50
